Source: patent US20170050966A1, “INHIBITING THE TRANSIENT RECEPTOR POTENTIAL A1 ION CHANNEL” (HYDRA BIOSCIENCES, INC., priority 2014, published 2017)
Blank lines part the entries; values can stand above or below the compound they belong to.

Assays:
[1] = target: T1, CYP1A2 (Homo sapiens, UniProt P05177); test: CYP450 inhibition at 10 μM; assay type: biochemical; conditions: 1A2, substrate Phenacetin
T1 sequence (P05177 1-516): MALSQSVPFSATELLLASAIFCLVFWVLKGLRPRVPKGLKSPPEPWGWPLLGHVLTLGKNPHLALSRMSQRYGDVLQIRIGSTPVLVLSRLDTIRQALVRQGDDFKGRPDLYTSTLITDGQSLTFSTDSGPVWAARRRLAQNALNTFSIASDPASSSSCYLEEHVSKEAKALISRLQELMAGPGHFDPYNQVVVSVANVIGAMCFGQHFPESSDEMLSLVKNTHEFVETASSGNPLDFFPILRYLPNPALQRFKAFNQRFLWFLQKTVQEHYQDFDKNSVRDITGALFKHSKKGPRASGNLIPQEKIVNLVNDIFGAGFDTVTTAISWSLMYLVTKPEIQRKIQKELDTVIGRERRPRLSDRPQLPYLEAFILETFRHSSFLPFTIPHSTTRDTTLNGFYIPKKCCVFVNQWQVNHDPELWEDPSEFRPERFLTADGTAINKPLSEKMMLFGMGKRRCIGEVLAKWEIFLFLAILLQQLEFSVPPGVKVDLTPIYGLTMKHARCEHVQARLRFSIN

[2] = target: CYP2C19 (Homo sapiens, UniProt P33261); test: in vitro; conditions: probe Mephenytoin
[3] = target: CYP2D6 (Homo sapiens, UniProt P10635); test: in vitro
[4] = target: CYP2C9 (Homo sapiens, UniProt P11712); test: in vitro
CYP2C9, sequence (P11712 whole entry): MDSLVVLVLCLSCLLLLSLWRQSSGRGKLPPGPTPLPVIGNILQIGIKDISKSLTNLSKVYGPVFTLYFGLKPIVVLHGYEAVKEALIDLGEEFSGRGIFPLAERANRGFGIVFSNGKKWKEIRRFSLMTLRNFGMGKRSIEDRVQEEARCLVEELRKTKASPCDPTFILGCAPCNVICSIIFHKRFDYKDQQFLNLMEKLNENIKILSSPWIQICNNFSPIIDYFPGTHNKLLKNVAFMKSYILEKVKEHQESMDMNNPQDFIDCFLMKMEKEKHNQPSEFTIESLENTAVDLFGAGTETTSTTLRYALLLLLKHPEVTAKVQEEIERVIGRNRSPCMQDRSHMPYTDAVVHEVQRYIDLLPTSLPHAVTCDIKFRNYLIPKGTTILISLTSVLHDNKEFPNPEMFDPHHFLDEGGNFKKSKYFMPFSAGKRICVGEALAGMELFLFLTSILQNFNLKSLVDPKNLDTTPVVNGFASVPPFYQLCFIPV

CYP2D6, sequence (P10635 whole entry): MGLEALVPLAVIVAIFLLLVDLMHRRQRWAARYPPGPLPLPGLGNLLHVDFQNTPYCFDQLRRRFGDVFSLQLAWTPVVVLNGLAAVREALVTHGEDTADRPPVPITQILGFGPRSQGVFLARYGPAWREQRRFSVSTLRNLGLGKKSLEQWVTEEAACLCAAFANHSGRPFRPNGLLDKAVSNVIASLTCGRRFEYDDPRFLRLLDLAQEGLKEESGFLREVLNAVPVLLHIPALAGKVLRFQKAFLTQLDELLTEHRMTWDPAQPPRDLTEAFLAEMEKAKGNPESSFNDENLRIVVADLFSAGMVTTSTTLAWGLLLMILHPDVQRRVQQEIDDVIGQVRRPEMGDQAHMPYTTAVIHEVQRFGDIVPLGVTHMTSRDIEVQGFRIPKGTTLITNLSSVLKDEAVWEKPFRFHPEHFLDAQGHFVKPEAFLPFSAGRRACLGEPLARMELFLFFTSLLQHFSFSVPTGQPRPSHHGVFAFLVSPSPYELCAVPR
CYP2C19, sequence (P33261 whole entry): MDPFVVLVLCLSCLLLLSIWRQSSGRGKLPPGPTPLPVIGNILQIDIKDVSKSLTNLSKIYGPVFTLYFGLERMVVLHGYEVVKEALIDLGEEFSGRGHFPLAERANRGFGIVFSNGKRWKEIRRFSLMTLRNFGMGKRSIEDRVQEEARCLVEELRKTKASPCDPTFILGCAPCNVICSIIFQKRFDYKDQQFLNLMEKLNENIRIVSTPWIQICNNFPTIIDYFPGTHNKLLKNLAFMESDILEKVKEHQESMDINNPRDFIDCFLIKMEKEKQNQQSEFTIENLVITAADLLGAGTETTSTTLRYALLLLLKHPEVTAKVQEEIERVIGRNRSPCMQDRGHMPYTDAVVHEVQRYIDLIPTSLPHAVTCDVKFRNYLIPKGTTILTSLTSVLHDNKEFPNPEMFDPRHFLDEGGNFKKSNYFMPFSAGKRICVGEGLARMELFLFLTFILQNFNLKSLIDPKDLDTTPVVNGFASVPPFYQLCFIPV

SMILES: COCCCC/C(=N\OCCN)c1ccc(C(F)(F)F)cc1 [Fluvoxamine, reference compound]
inhibition at 10 µM [1]: 96.6%

inhibition at 10 µM [2]: 68.2%
SMILES: COc1ccc2[nH]c([S+]([O-])Cc3ncc(C)c(OC)c3C)nc2c1 (stereo not shown) [Omeprazole, reference compound]

SMILES: C=C[C@H]1C[N@@]2CC[C@H]1C[C@@H]2[C@@H](O)c1ccnc2ccc(OC)cc12 [Quinidine, reference compound]
inhibition at 1 μM [3]: 55.8%

SMILES: Nc1ccc(S(=O)(=O)Nc2ccnn2-c2ccccc2)cc1 [Sulfaphenazole, reference compound]
inhibition at 10 µM [4]: 95.3%
